The source of these data is patent US20070128217A1 (priority 2003, published 2007).

Assay [1] deals with antibodies in sera from SARS patients (sera 1a, 1b, 2, 6, 37, 62, London, SARS-yellow, SARS-green). Type of assay: binding, human. Also on record: Binding of serum 6 to linear peptides of protein X1 of SARS-CoV Urbani / Binding of serum 37 to linear peptides of protein X1 of SARS-CoV Urbani / Binding of serum 6 to looped/cyclic peptide (PEPSCAN-ELISA) / Binding of serum 37 to looped/cyclic peptide (PEPSCAN-ELISA) / Binding of serum 37 to looped/cyclic peptides of protein X1 of SARS-CoV Urbani / Binding of serum 6 to linear peptides of protein X2 / Binding of serum 37 to linear peptides of protein X2 / Binding of serum 37 to looped/cyclic peptides of protein X2 of SARS-CoV Urbani / Binding of serum 6 to linear peptides of protein M of SARS-CoV Urbani / Binding of serum 37 to linear peptides of protein M of SARS-CoV Urbani / Binding of serum 6 to looped/cyclic peptides of protein M of SARS-CoV Urbani / Binding of serum 37 to looped/cyclic peptides of protein M of SARS-CoV Urbani / Binding of serum 6 to linear peptides of protein X3 of SARS-CoV Urbani / Binding of serum 37 to linear peptides of protein X3 of SARS-CoV Urbani / Binding of serum 37 to looped/cyclic peptides of protein X3 of SARS-CoV Urbani / Binding of serum 6 to linear peptides of protein X4 of SARS-CoV Urbani / Binding of serum 37 to linear peptides of protein X4 of SARS-CoV Urbani / Binding of serum 37 to looped/cyclic peptides of protein X4 of SARS-CoV Urbani / Binding of serum 6 to linear peptides of protein X5 of SARS-CoV Urbani / Binding of serum 37 to linear peptides of protein X5 of SARS-CoV Urbani / Binding of serum 37 to looped/cyclic peptides of protein X5 of SARS-CoV Urbani / Binding of serum 6 to linear peptides of protein N of SARS-CoV Urbani / Binding of serum 37 to linear peptides of protein N of SARS-CoV Urbani / Binding of serum 6 to linear peptide (PEPSCAN-ELISA) / Binding of serum 1a to looped/cyclic peptides of protein N of SARS-CoV Urbani / Binding of serum 1b to looped/cyclic peptides of protein N of SARS-CoV Urbani / Binding of serum 2 to looped/cyclic peptides of protein N of SARS-CoV Urbani / Binding of serum 6 to looped/cyclic peptides of protein N of SARS-CoV Urbani / Binding of serum 37 to looped/cyclic peptides of protein N of SARS-CoV Urbani / Binding of serum 62 to looped/cyclic peptides of protein N of SARS-CoV Urbani / Binding of serum London to looped/cyclic peptides of protein N of SARS-CoV Urbani / Binding of serum SARS-green to looped/cyclic peptides of protein N of SARS-CoV Urbani: unit not given here.

Assay [2] concerns control sera (pooled serum of ten healthy LUMC hospital workers; commercial negative donor pooled serum from the Dutch bloodbank). Type of assay: binding, human. Also on record: Binding of Control serum LUMC to linear peptides / Binding of Control serum Blood-bank to linear peptides / Binding of Control serum LUMC to looped peptides / Binding of Control Serum Blood-Bank to Looped peptides / Binding of Control serum LUMC to linear peptides of the protein M of SARS-CoV Urbani / Binding of Control serum Blood-bank to linear peptides of the protein M of SARS-CoV Urbani / Binding of Control serum LUMC to looped peptides of the protein M of SARS-CoV Urbani / Binding of Control Serum Blood-Bank to Looped peptides of the protein M of SARS-CoV Urbani: unit not given here.

Assay [3] concerns rabbit serum obtained by immunizing a rabbit with the SARS-CoV strain Frankfurt 1. Type of assay: binding. Also on record: Binding of a rabbit serum to linear peptides / Binding of a rabbit serum to looped peptides / Rabbit serum linear peptides / Rabbit serum looped peptides / Binding of a rabbit serum to linear peptides of protein N of SARS-CoV Urbani (Rabbit serum linear peptides) / Binding of a rabbit serum to looped/cyclic peptides of protein N of SARS-CoV Urbani (Rabbit serum looped peptides): unit not given here.

Consider FGWLVIGVAFLAVFQ, for which, in assay [1], the “Binding of serum 1a to linear peptides of protein X1 of SARS-CoV Urbani” value was 0.7, the “Binding of serum 1a to looped/cyclic peptide (PEPSCAN-ELISA)” value is 0.7, the “Binding of serum 1b to linear peptides of protein X1 of SARS-CoV Urbani” value is listed as 0.5 and the “Binding of serum 1b to looped/cyclic peptide (PEPSCAN-ELISA)” value is listed as 0.8. Further, in assay [1], the “Binding of serum 2 to linear peptides of protein X1 of SARS-CoV Urbani” value is reported as 0.5, the “Binding of serum 2 to looped/cyclic peptide (PEPSCAN-ELISA)” value amounted to 0.7, the “Binding of serum 6 to linear peptides of protein X1 of SARS-CoV Urbani” value is reported as 0.4 and the “Binding of serum 6 to looped/cyclic peptide (PEPSCAN-ELISA)” value is recorded as 0.5. In addition, in assay [1], the “Binding of serum 37 to linear peptides of protein X1 of SARS-CoV Urbani” value is 0.6, the “Binding of serum 37 to looped/cyclic peptide (PEPSCAN-ELISA)” value was 0.6, the “Binding of serum 62 to linear peptides of protein X1 of SARS-CoV Urbani” value was determined as 0.6 and the “Binding of serum 62 to looped/cyclic peptide (PEPSCAN-ELISA)” value is 0.7. In assay [1], the “Binding of serum London to linear peptides of protein X1 of SARS-CoV Urbani” value is recorded as 0.3, the “Binding of serum London to looped/cyclic peptide (PEPSCAN-ELISA)” value is 0.3, the “Binding of serum SARS-green to linear peptides of protein X1 of SARS-CoV Urbani” value is recorded as 0.1 and the “Binding of serum SARS-green to looped/cyclic peptide (PEPSCAN-ELISA)” value was 0.4. In assay [1], the “Binding of serum SARS-yellow to linear peptides of protein X1 of SARS-CoV Urbani” value was 0.5 and the “Binding of serum SARS-yellow to looped/cyclic peptide (PEPSCAN-ELISA)” value was found to be 0.6. Also, in assay [2], the “Binding of Control Serum Blood-Bank to Looped peptides” value stood at 0.6, the “Binding of Control serum Blood-bank to linear peptides” value came out at 0.5, the “Binding of Control serum LUMC to linear peptides” value is given as 0.5 and the “Binding of Control serum LUMC to looped peptides” value was determined as 0.7. Moreover, in assay [3], the “Binding of a rabbit serum to linear peptides” value came to 1.2 and the “Binding of a rabbit serum to looped peptides” value came out at 0.5.
Consider FHLVDFQVTIAEILI, for which, in assay [1], the “Binding of serum 1a to linear peptides of protein X3 of SARS-CoV Urbani” value worked out at 0.8, the “Binding of serum 1a to looped/cyclic peptides of protein X3 of SARS-CoV Urbani” value turned out to be 0.8, the “Binding of serum 1b to linear peptides of protein X3 of SARS-CoV Urbani” value is recorded as 0.6 and the “Binding of serum 1b to looped/cyclic peptides of protein X3 of SARS-CoV Urbani” value was 0.4. Also, in assay [1], the “Binding of serum 2 to linear peptides of protein X3 of SARS-CoV Urbani” value was found to be 0.7, the “Binding of serum 2 to looped/cyclic peptides of protein X3 of SARS-CoV Urbani” value worked out at 0.8, the “Binding of serum 6 to linear peptides of protein X3 of SARS-CoV Urbani” value came to 0.4 and the “Binding of serum 6 to looped/cyclic peptides of protein X3 of SARS-CoV Urbani” value came to 0.5. Besides, in assay [1], the “Binding of serum 37 to linear peptides of protein X3 of SARS-CoV Urbani” value was 0.7, the “Binding of serum 37 to looped/cyclic peptides of protein X3 of SARS-CoV Urbani” value worked out at 0.7, the “Binding of serum 62 to linear peptides of protein X3 of SARS-CoV Urbani” value is on record as 0.6 and the “Binding of serum 62 to looped/cyclic peptides of protein X3 of SARS-CoV Urbani” value stood at 0.7. For the same sequence, in assay [1], the “Binding of serum London to linear peptides of protein X3 of SARS-CoV Urbani” value is given as 0.6, the “Binding of serum London to looped/cyclic peptides of protein X3 of SARS-CoV Urbani” value came to 0.2, the “Binding of serum SARS-green to linear peptides of protein X3 of SARS-CoV Urbani” value came out at 0.5 and the “Binding of serum SARS-green to looped/cyclic peptides of protein X3 of SARS-CoV Urbani” value was 0.3. In assay [1], the “Binding of serum SARS-yellow to linear peptides of protein X3 of SARS-CoV Urbani” value is recorded as 0.9 and the “Binding of serum SARS-yellow to looped/cyclic peptides of protein X3 of SARS-CoV Urbani” value is 0.8. Also, in assay [2], the “Binding of Control Serum Blood-Bank to Looped peptides of the protein X3 of SARS-CoV Urbani” value came out at 0.7, the “Binding of Control serum Blood-bank to linear peptides of the protein X3 of SARS-CoV Urbani” value is on record as 0.8, the “Binding of Control serum LUMC to linear peptides of the protein X3 of SARS-CoV Urbani” value worked out at 0.6 and the “Binding of Control serum LUMC to looped peptides of the protein X3 of SARS-CoV Urbani” value came out at 0.8. Besides, in assay [3], the “Rabbit serum linear peptides” value was found to be 0.3 and the “Rabbit serum looped peptides” value was 0.5.
